Laboratory results published in PubChem BioAssay AID2060626 (Molecular Pharmacology Branch, DTP, NCI, 2025).
pIC50: −log10 of the molar value.

System: 168753-222-R-J1-PDC complex spheroid viability
Assay: Anticancer human tumor 168753-222-R-J1-PDC patient-derived bladder carcinoma cell line growth inhibition [CLK]
Conditions: for pIC50: curve of first compound; for viability, T/C: stronger effect = lower value; active = viability on the fitted dose curve at most 10% of control; inactive = the rest
Method in brief: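 Patient-derived tumor cells grown as complex spheroids with HUVEC endothelial cells and mesenchymal stem cells, treated with drug combinations. Concentrations descend in half-log steps from near clinical Cmax, or from 10 microM if Cmax unknown.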

[1] = second compound 0.0316 µM, first compound 0.0316 µM
[2] = second compound 0.0316 µM, first compound 0.1 µM
[3] = second compound 0.1 µM, first compound 0.0316 µM
[4] = second compound 0.1 µM, first compound 0.1 µM
[5] = second compound 0.316 µM, first compound 0.0316 µM
[6] = second compound 0.316 µM, first compound 0.1 µM
[7] = second compound 1 µM, first compound 0.0316 µM
[8] = second compound 1 µM, first compound 0.1 µM
[9] = second compound 3.16 µM, first compound 0.0316 µM
[10] = second compound 3.16 µM, first compound 0.1 µM
[11] = second compound 10 µM, first compound 0.0316 µM
[12] = second compound 10 µM, first compound 0.1 µM
[13] = second compound 0.0316 µM, first compound 0.316 µM
[14] = second compound 0.0316 µM, first compound 1 µM
[15] = second compound 0.0316 µM, first compound 3.16 µM
[16] = second compound 0.0316 µM, first compound 10 µM
[17] = second compound 0.1 µM, first compound 0.316 µM
[18] = second compound 0.1 µM, first compound 1 µM
[19] = second compound 0.1 µM, first compound 3.16 µM
[20] = second compound 0.1 µM, first compound 10 µM
[21] = second compound 0.316 µM, first compound 0.316 µM
[22] = second compound 0.316 µM, first compound 1 µM
[23] = second compound 0.316 µM, first compound 3.16 µM
[24] = second compound 0.316 µM, first compound 10 µM
[25] = second compound 1 µM, first compound 0.316 µM
[26] = second compound 1 µM, first compound 1 µM
[27] = second compound 1 µM, first compound 3.16 µM
[28] = second compound 1 µM, first compound 10 µM
[29] = second compound 3.16 µM, first compound 0.316 µM
[30] = second compound 3.16 µM, first compound 1 µM
[31] = second compound 3.16 µM, first compound 3.16 µM
[32] = second compound 3.16 µM, first compound 10 µM
[33] = second compound 10 µM, first compound 0.316 µM
[34] = second compound 10 µM, first compound 1 µM
[35] = second compound 10 µM, first compound 3.16 µM
[36] = second compound 10 µM, first compound 10 µM
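Note: viability measured after seven days of drug exposure.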
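Throughout, for viability, T/C: luminescence signal used as surrogate for viable cell amount; 100% = DMSO vehicle control wells.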

Cn1ncnc1[C@H]1c2n[nH]c(=O)c3cc(F)cc(c23)N[C@@H]1c1ccc(F)cc1 + CN1CCN(c2cc(C(=O)Nc3cc4cc(-c5cnn(C)c5)ccc4cn3)ccn2)CC1
< 7.00: pIC50 (second compound 0.0316 µM)
> 9.50: pIC50 (second compound 0.316 µM) | pIC50 (second compound 1 µM) | pIC50 (second compound 3.16 µM) | pIC50 (second compound 10 µM)
inactive: viability, T/C (second compound 0.0316 µM, first compound 0.000316 µM) 90.2% | viability, T/C (second compound 0.0316 µM, first compound 0.001 µM) 95.1% | viability, T/C (second compound 0.0316 µM, first compound 0.00316 µM) 70.5% | viability, T/C (second compound 0.0316 µM, first compound 0.01 µM) 101% | viability, T/C [1] 97.9% | viability, T/C [2] 58.2% | viability, T/C (second compound 0.1 µM, first compound 0.000316 µM) 58.7% | viability, T/C (second compound 0.1 µM, first compound 0.001 µM) 72.5% | viability, T/C (second compound 0.1 µM, first compound 0.00316 µM) 54.7% | viability, T/C (second compound 0.1 µM, first compound 0.01 µM) 18.7% | viability, T/C [3] 25.8% | viability, T/C [4] 56%
active: viability, T/C (second compound 0.316 µM, first compound 0.000316 µM) 9.67% | viability, T/C (second compound 0.316 µM, first compound 0.001 µM) 9.41% | viability, T/C (second compound 0.316 µM, first compound 0.00316 µM) 8.77% | viability, T/C (second compound 0.316 µM, first compound 0.01 µM) 7.96% | viability, T/C [5] 8.57% | viability, T/C [6] 8.4% | viability, T/C (second compound 1 µM, first compound 0.000316 µM) 0.18% | viability, T/C (second compound 1 µM, first compound 0.001 µM) 0.28% | viability, T/C (second compound 1 µM, first compound 0.00316 µM) 0.18% | viability, T/C (second compound 1 µM, first compound 0.01 µM) 0.53% | viability, T/C [7] 0.24% | viability, T/C [8] 0.51% | viability, T/C (second compound 3.16 µM, first compound 0.000316 µM) 1.24% | viability, T/C (second compound 3.16 µM, first compound 0.001 µM) 0.1% | viability, T/C (second compound 3.16 µM, first compound 0.00316 µM) 0.18% | viability, T/C (second compound 3.16 µM, first compound 0.01 µM) 0.06% | viability, T/C [9] 0.26% | viability, T/C [10] 0.88% | viability, T/C (second compound 10 µM, first compound 0.000316 µM) 0.11% | viability, T/C (second compound 10 µM, first compound 0.001 µM) 0.27% | viability, T/C (second compound 10 µM, first compound 0.00316 µM) 0.25% | viability, T/C (second compound 10 µM, first compound 0.01 µM) 0.1% | viability, T/C [11] 0.21% | viability, T/C [12] 0.19%
8.39: pIC50 (second compound 0.1 µM)

Nc1ccn(C2OC(CO)C(O)C2(F)F)c(=O)n1 (stereo unspecified) + CN1CCN(c2cc(C(=O)Nc3cc4cc(-c5cnn(C)c5)ccc4cn3)ccn2)CC1
7.34: pIC50 (second compound 0.1 µM)
inactive: viability, T/C [1] 65.4% | viability, T/C [2] 28.6% | viability, T/C [13] 21.3% | viability, T/C [14] 19% | viability, T/C [15] 15.6% | viability, T/C [16] 16% | viability, T/C [3] 63.6% | viability, T/C [4] 21.3% | viability, T/C [17] 15.4% | viability, T/C [18] 11.6% | viability, T/C [19] 10.2% | viability, T/C [20] 11.8% | viability, T/C [5] 9.99% | viability, T/C [6] 10.4% | viability, T/C [21] 9.64% | viability, T/C [22] 9.63% | viability, T/C [23] 10.7% | viability, T/C [24] 12%
> 7.50: pIC50 (second compound 0.316 µM) | pIC50 (second compound 1 µM) | pIC50 (second compound 3.16 µM) | pIC50 (second compound 10 µM)
7.29: pIC50 (second compound 0.0316 µM)
active: viability, T/C [7] 0.28% | viability, T/C [8] 0.18% | viability, T/C [25] 0.16% | viability, T/C [26] 0.12% | viability, T/C [27] 0.57% | viability, T/C [28] 0.21% | viability, T/C [9] 0.1% | viability, T/C [10] 0.12% | viability, T/C [29] 0.43% | viability, T/C [30] 0.07% | viability, T/C [31] 0.15% | viability, T/C [32] 0.1% | viability, T/C [11] 0.14% | viability, T/C [12] 0.14% | viability, T/C [33] 1.05% | viability, T/C [34] 1.61% | viability, T/C [35] 0.42% | viability, T/C [36] 0.9%

O=c1[nH]cc(F)c(=O)[nH]1 + CN1CCN(c2cc(C(=O)Nc3cc4cc(-c5cnn(C)c5)ccc4cn3)ccn2)CC1
inactive: viability, T/C [1] 100% | viability, T/C [2] 91.9% | viability, T/C [13] 78.8% | viability, T/C [14] 108% | viability, T/C [15] 95.4% | viability, T/C [16] 45.2% | viability, T/C [3] 72% | viability, T/C [4] 62.8% | viability, T/C [17] 15.2% | viability, T/C [18] 45.6% | viability, T/C [19] 36.3% | viability, T/C [20] 29% | viability, T/C [5] 10.5%
6.80: pIC50 (second compound 0.1 µM)
active: viability, T/C [6] 10% | viability, T/C [21] 8.13% | viability, T/C [22] 8.71% | viability, T/C [23] 8.45% | viability, T/C [24] 8.48% | viability, T/C [7] 0.22% | viability, T/C [8] 0.19% | viability, T/C [25] 0.15% | viability, T/C [26] 0.18% | viability, T/C [27] 0.33% | viability, T/C [28] 0.58% | viability, T/C [9] 0.97% | viability, T/C [10] 0.11% | viability, T/C [29] 0.09% | viability, T/C [30] 0.19% | viability, T/C [31] 1.18% | viability, T/C [32] 1.57% | viability, T/C [11] 0.09% | viability, T/C [12] 0.24% | viability, T/C [33] 0.24% | viability, T/C [34] 0.82% | viability, T/C [35] 1.41% | viability, T/C [36] 1.15%
5.05: pIC50 (second compound 0.0316 µM)
> 7.50: pIC50 (second compound 0.316 µM) | pIC50 (second compound 1 µM) | pIC50 (second compound 3.16 µM) | pIC50 (second compound 10 µM)
